Data reported in patent publication US20120045532A1, “Anticancer Methods Employing Extracts of Gleditsia sinensis Lam” (priority 2008, published 2012).

Tests used:
[1] = tested on: Hs578T; assay: Annexin V/PI binding (cell death/apoptosis), flow cytometry; format: cell-based; details: for effect of addition of cholesterol on induced death: Hs578T cells, 70 μg/ml BN107, 0.2 mg/ml BZL101 or 500 nM taxol with 500 μM cholesterol, 18 hours
Experimental: (§1) ERα plays a role in BN107-induced apoptosis. In Table 1-1 below are the results of experiments in which cells were treated with BN107 and harvested after 24 hours for analysis of Annexin V/PI binding. Three independent experiments were conducted for each data point.
(§2) BN107 induced apoptosis selectively in ER− breast cancer cells and introducing expression of ERα protected these cells against BN107 Prior studies have shown that ethanolic extract of G. sinensis is cytotoxic to a number tumor cell lines by inducing cytotoxicity. A wider panel of solid-tumor cell lines, derived from various origins, is analyzed herein. Sub-confluent cultures were treated with 70 μg/ml of BN107 for 18 hours and cell death were analyzed by annexinV/PI binding followed by flow cytometry. […] It is evident that BN107 induced cell death in tumor lines derived from various origins to different extent. […] These experiments sought to determine if there was correlative relationship between genotypic characteristics of the cells versus sensitivity. As shown in Table 2-1, it appeared that cells lacking ER expression were highly sensitive to BN107; while cells containing functional ER were relatively insensitive to BN107 at this dose. The death induced by BN107 in ER− lines was apoptotic in nature that was primarily mediated by the mitochondrial pathway, as evident from Annexin V binding, dissipation of mitochondrial potential, cytosolic release of cytochrome C, activation of caspases, and DNA fragmentation.
(§3) All the cell lines used were purchased from ATCC. Cells were treated with 70 μg/ml of BN107 (calculated based on freeze-dry weight). The dose is determined based on the EC50 of each batch in killing 50% of Hs578T or MDA-MB-231 cells 18 hours after treatment.
(§4) Cell survival was measured using FACS analysis of AnnexinV-alexa 488/PI bound cells following the manufacturer's instruction (Invitrogen). Mitochondrial transmembrane potential (MTP) was determined using JC-1 dye (Invitrogen) in live cells and analyzed using flow cytomery. Caspase 3 and 9 activities were measured using specific caspase peptide inhibitors (Calbiochem) conjugated to FITC followed by flow cytometry analysis. Cytosolic cytochrome C release were determined by separating the cytosol from mitochondria (Biovision) and cytochrome C released in cytosol was shown using immunoblotting.

[2] = tested on: mTORC1; assay: mTORC1 activity by phosphorylation of 4E-BP and p70S6 kinase (Western); format: cell-based, human; details: lipid raft region of Hs578T cells; 70 μg/ml BN107 or 110 μM oleanolic acid, 4 hr
Experimental: (§5) As Akt/mTOR, the main survival signaling pathway, has been implicated to take place on LRs, it was hypothesized that BN107 and similarly OA disrupted the signaling of these complexes on LRs. The fractions collected from sucrose-density—centrifugation of BN107 or OA treated Hs578T or MCF7 lysates were dialyzed and concentrated. Same amounts of protein from LR (fractions 3-5), non-LR plasma membrane (f6), and cytosolic (f8) fractions were analyzed by Western blotting. The levels of RAPTOR, Akt, 4E-BP, p70S6 kinase were first observed in these collected fractions; and it was confirmed that they were all enriched in the LR fractions (data not shown). The levels of phospho-mTOR, total mTOR; as well as the mTORC1 and mTORC2 complex partner RAPTOR and RICTOR, respectively, were then measured in BN107 or OA treated Hs578T cells. […]
(§6) A modified procedure for density gradient centrifugation using Nycodenz from Sigma-Aldrich (St. Louis, Mo.) was used to fractionate Triton X-100-soluble and Triton X-100-insoluble membrane and cytoskeletal subdomains and complexes. […] Total of 10 fractions and control input lysate were analyzed for the distribution of proteins by Western blot. […] The fractions were dialyzed against PBS to remove the gradient sugars and concentrated using Amicon Ultra 4 centrifugal filter device (Millipore) before protein quantitation (BCA reagent, Thermo Fisher). […]

[3] = tested on: phospho-mTOR, total mTOR, RAPTOR and RICTOR in LR fractions of Hs578T; assay: Western blot of lipid raft fractions: mTOR complex components; format: cell-based, human; details: Hs578T cells; 70 μg/ml BN107 or 110 μM oleanolic acid, 4 hours
Experimental: as §5, §6

[4] = tested on: mTORC2 / Akt; assay: Ser473-phosphorylated Akt in LR fractions as read-out for mTORC2 activity (Western); format: cell-based, human; details: Hs578T cells; 70 μg/ml BN107 or 110 μM oleanolic acid, 4 hr
Experimental: (§7) In addition, as the same pool of mTOR/FRAP1 polypeptide is shared between the mTORC1 and mTORC2 complex and the mTORC2 complex partner RICTOR was decreased in the lipid rafts of BN107 or OA-treated Hs578T cells, it was hypothesized that mTORC2 activity would be inhibited as well. Given the recent discovery that mTORC2 is the main kinase phosphorylating Akt at Ser473, and Akt signaling has been implicated to take place on LRs, the level of Ser473 phosphorylated Akt was analyzed in LR fractions as a read-out for mTORC2 activity. […] Conversely, addition of exogenous cholesterol restored these signaling events disrupted by BN107 or OA (FIG. 8C). […] The levels of transferrin receptor (TR) marking the non-LR plasma membrane region and GAPDH marking the cytosolic fractions were not affected in both cell lines by either BN107 or OA treatment.
as §6

[5] = animals; cited from earlier work
[6] = tested on: mTORC1/mTORC2/Akt signaling in MCF7 cells; assay: Western blot of lipid raft fractions, resistant cells; format: cell-based, human
Experimental: as §7, §6

[7] = tested on: mTOR/FRAP1, phospho-mTOR, RAPTOR, RICTOR, Akt in Hs578T cells; assay: Western analysis of total cellular lysate; format: cell-based, human; details: ER− Hs578T cells (data not shown)
Text: To ascertain that these signaling changes occurred at LRs indeed translated into the whole-cell level. […] Consistent with the data shown within the lipid raft fractions, levels of total mTOR/FRAP1, phospho-mTOR, RAPTOR, and RICTOR were all decreased within one hour of BN107 treatment, resulting in minimal mTORC1 and mTORC2 activities to phosphorylate 4E-BP and p70S6 kinase, and Ser473-Akt, respectively. The decrease in total protein levels of mTOR/FRAP1, RAPTOR and RICTOR occurred post-transcriptionally as the levels of their corresponding mRNAs were not modulated by BN107 or OA treatment in the sensitive ER− Hs578T cells (data not shown). […] These effects were presumably due to their cholesterol binding/stripping effect on LRs, as addition of exogenous cholesterol seemed to reverse these events (FIG. 8C).
Cell extracts, obtained by scraping cells in PBS in the presence of protein phosphatase and protease inhibitors and lysing with ice-cold RIPA buffer, were loaded on the SDS-PAGE at 25-30 μg per lane. Same amounts of proteins […] were precipitated from lipid raft fractions and loaded onto 3-7% TA gel or 4-12% Bis-Tris gels. Separated proteins were transferred onto nitrocellulose membrane (iBlot, Invitrogen) and used for probing with specific antibodies following manufacturer's instruction. Blots were reused several times after mild stripping (Restore, ThermoFisher) when necessary. […]

[8] = tested on: MDA-MB-231; assay: Annexin V/PI binding (cell death/apoptosis), flow cytometry; format: cell-based; details: Homo sapiens, MDA-MB-231, read-out: EC50 for MDA-MB-231
Experimental: as §1, §2, §3, §4

SMILES	effect of addition of cholesterol on induced death [1]	mTORC1 activity (phosphorylation of 4E-BP and p70S6 kinase) [2]	levels of phospho-mTOR, total mTOR, RAPTOR and RICTOR in LR fractions [3]	level of Ser473-phosphorylated Akt in LR fractions (mTORC2 read-out) [4]	total level of Akt on LRs [4]	toxicity at anti-tumor doses [5]	changes in mTORC1/mTORC2/Akt signaling on LRs [6]	mRNA levels of mTOR/FRAP1, RAPTOR and RICTOR [7]	EC50 [8]	EC50 ([1]; Homo sapiens, Hs-578T, read-out: EC50 for Hs578T)
CC(=O)O[C@H]1C(=O)[C@@]2(C)[C@H]([C@H](OC(=O)c3ccccc3)[C@]3(O)C[C@H](OC(=O)[C@H](O)[C@@H](NC(=O)c4ccccc4)c4ccccc4)C(C)=C1C3(C)C)[C@]1(OC(C)=O)CO[C@@H]1C[C@@H]2O [taxol, paclitaxel, reference compound]	no effect									
CC1(C)CC[C@]2(C(=O)O)CC[C@]3(C)C(=CC[C@@H]4[C@@]5(C)CC[C@H](O)C(C)(C)[C@@H]5CC[C@]43C)[C@@H]2C1 [OA, oleanolic acid]	protected cells specifically and completely	greatly inhibited	significantly decreased	decreased	no effect	minimal toxicity	None of these changes were observed	not modulated	125 µM	110 µM
